We go through six molecules from patent EP4722207A1, “OXOISOINDOLINYL-SUBSTITUTED TETRAHYDROPYRIMIDINEDIONE DERIVATIVE AND USE THEREOF” (Gluetacs Therapeutics (Shanghai) Co., Ltd., priority 2023, dated 2024).

The target of one test is T1, IKZF1 (Homo sapiens, UniProt Q13422+Q96SW2).
T1 construct: effects of the compounds of the present disclosure on the expression of target proteins in cells; endogenous in cells; host or cells: human PBMCs (hPBMCs)
As to the kind of experiment: Western-blot assay, substrate protein degradation in hPBMCs: IKZF1. The class given is cell-based. To be noted: 24 hours of compound treatment, 50 nM and 500 nM.

The test system of another test is H292. The test can be described thus: Cell viability assay (CellTiter-Meiluncell Luminescent), tumor cell proliferation, H292. The following applies: Homo sapiens, NCI-H292, 96 h; for inhibition at 0.01 µM: read-out: Inhibition Rate at 10 nM (%); for inhibition at 0.5 µM: read-out: Inhibition Rate at 500 nM (%).
A further test deals with MDA-MB-231. The test can be described thus: Cell viability assay (CellTiter-Meiluncell Luminescent), tumor cell proliferation, MDA-MB-231. To be noted: Homo sapiens, MDA-MB-231, 96 h; for inhibition at 0.01 µM: read-out: Inhibition Rate at 10 nM (%); for inhibition at 0.5 µM: read-out: Inhibition Rate at 500 nM (%).
The target in a further test is T2, IKZF3 (Homo sapiens, UniProt Q96SW2+Q9UKT9).
T2 construct: effects of the compounds of the present disclosure on the expression of target proteins in cells; endogenous in cells; host or cells: human PBMCs (hPBMCs)
T2 sequence (Q9UKT9 whole entry): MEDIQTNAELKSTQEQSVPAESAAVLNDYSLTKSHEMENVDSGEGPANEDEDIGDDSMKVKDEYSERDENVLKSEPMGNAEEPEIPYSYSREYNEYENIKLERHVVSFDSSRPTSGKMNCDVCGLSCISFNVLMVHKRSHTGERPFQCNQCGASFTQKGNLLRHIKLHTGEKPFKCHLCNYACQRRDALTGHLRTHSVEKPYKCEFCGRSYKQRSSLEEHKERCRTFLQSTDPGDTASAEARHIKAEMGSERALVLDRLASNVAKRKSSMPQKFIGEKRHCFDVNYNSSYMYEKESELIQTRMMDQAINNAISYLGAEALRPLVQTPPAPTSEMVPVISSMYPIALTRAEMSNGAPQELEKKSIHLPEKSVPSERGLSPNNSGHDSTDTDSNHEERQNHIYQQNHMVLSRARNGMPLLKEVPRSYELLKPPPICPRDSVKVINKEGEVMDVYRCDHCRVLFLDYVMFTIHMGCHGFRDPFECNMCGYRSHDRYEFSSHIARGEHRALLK
T2 sequence (Q96SW2 whole entry): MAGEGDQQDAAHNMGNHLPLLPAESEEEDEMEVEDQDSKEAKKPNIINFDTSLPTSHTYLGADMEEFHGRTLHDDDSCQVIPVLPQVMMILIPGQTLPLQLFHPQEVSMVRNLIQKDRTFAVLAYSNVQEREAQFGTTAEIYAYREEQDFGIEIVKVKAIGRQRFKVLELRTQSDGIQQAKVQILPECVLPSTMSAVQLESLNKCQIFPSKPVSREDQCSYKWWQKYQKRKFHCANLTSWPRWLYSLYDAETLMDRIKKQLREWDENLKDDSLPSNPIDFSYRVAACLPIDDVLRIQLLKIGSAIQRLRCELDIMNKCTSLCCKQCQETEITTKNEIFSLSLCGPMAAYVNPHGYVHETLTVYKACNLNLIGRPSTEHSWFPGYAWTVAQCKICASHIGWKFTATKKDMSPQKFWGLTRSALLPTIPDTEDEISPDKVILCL
T2 sequence (Q16531 whole entry partner): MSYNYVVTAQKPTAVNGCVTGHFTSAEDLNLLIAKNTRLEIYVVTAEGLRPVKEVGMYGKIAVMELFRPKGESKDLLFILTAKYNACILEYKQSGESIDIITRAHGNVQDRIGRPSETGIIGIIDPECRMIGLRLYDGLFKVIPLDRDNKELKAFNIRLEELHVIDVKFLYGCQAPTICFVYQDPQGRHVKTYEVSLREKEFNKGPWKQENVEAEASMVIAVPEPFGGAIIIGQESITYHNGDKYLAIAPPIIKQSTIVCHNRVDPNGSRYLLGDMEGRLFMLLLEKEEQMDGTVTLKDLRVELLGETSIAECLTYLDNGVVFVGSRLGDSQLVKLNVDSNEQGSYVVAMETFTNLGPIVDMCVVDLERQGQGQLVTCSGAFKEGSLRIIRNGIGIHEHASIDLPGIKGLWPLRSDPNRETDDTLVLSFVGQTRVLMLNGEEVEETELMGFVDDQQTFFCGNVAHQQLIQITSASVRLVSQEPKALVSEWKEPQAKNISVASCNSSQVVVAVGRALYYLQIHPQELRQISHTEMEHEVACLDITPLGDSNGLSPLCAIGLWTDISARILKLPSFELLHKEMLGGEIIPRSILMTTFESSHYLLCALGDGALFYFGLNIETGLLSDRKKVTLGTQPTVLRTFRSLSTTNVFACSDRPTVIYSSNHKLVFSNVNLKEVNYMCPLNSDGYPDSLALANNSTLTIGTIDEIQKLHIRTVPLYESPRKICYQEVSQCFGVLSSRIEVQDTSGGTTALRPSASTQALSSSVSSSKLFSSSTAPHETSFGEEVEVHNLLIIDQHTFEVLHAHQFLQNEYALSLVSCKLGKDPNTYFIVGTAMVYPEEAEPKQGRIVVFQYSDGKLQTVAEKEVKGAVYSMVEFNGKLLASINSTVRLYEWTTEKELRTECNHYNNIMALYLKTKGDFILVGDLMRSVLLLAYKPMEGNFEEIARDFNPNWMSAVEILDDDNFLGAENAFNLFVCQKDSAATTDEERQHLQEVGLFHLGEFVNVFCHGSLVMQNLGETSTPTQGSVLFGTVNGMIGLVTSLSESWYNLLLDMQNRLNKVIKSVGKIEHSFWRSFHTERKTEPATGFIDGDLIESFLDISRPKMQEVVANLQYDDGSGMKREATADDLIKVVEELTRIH
As to the kind of experiment: Western-blot assay, substrate protein degradation in hPBMCs: IKZF3. The following applies: 24 hours of compound treatment, 50 nM and 500 nM. The class given is cell-based.

Another test deals with T3, IKZF2 (Homo sapiens, UniProt Q96SW2+Q9UKS7).
T3 construct: effects of the compounds of the present disclosure on the expression of target proteins in cells; endogenous in cells; host or cells: human PBMCs (hPBMCs)
T3 sequence (Q9UKS7 whole entry): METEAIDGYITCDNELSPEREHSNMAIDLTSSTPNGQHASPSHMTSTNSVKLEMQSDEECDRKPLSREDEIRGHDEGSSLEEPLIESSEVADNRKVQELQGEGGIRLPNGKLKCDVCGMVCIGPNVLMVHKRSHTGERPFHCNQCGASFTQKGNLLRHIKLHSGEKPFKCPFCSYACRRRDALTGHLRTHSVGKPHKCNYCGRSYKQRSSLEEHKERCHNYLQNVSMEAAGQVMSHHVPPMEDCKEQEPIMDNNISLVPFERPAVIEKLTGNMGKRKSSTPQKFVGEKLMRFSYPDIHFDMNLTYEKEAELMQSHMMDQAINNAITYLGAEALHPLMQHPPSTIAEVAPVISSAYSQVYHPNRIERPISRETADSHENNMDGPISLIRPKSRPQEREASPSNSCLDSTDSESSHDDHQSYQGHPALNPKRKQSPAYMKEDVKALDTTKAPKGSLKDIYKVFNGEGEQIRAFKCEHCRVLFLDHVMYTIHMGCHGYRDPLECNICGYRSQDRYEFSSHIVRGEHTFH
T3 sequence (Q96SW2 whole entry): as the sequence (Q96SW2 whole entry) above
T3 sequence (Q16531 whole entry partner): as the sequence (Q16531 whole entry partner) above
As to the kind of experiment: Western-blot assay, substrate protein degradation in hPBMCs: IKZF2. The format is cell-based. The following applies: 24 hours of compound treatment, 50 nM and 500 nM.

The test system of another test is H2228. The test can be described thus: Cell viability assay (CellTiter-Meiluncell Luminescent), tumor cell proliferation, H2228. The following applies: Homo sapiens, NCI-H2228, 96 h; for inhibition at 0.01 µM: read-out: Inhibition Rate at 10 nM (%); for inhibition at 0.5 µM: read-out: Inhibition Rate at 500 nM (%).
A further test has as its target T4, WEE1 (Homo sapiens, UniProt P30291+Q96SW2).
T4 construct: effects of the compounds of the present disclosure on the expression of target proteins in cells; endogenous in cells; host or cells: human PBMCs (hPBMCs)
As to the kind of experiment: Western-blot assay, substrate protein degradation in hPBMCs: WEE1. The class given is cell-based. The following applies: 24 hours of compound treatment, 50 nM and 500 nM.

In another test the target is T5, GSPT1 (Homo sapiens, UniProt P15170+Q96SW2).
T5 construct: effects of the compounds of the present disclosure on the expression of target proteins in cells; endogenous in cells; host or cells: human PBMCs (hPBMCs)
T5 sequence (P15170 whole entry): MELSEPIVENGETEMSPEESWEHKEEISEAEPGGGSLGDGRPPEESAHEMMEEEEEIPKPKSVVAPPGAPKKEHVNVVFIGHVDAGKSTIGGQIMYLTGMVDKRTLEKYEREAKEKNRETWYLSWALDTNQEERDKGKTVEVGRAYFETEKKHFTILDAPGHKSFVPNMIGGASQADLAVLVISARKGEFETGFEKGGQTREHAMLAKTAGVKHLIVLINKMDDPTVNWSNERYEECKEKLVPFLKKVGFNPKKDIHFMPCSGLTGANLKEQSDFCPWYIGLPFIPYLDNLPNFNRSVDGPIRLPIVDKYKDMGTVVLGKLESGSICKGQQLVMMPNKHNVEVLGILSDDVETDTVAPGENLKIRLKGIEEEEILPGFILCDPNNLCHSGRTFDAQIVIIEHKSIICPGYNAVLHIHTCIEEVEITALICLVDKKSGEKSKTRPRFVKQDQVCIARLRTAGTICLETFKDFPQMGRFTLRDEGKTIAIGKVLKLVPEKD
T5 sequence (Q96SW2 whole entry): as the sequence (Q96SW2 whole entry) above
T5 sequence (Q16531 whole entry partner): as the sequence (Q16531 whole entry partner) above
The test can be described thus: Western-blot assay, substrate protein degradation in hPBMCs: GSPT1. The format is cell-based. The following applies: 24 hours of compound treatment, 50 nM and 500 nM.

For a further test, the target named is T6, CK1α (Homo sapiens, UniProt P48729+Q96SW2).
T6 construct: effects of the compounds of the present disclosure on the expression of target proteins in cells; endogenous in cells; host or cells: human PBMCs (hPBMCs)
T6 sequence (P48729 whole entry): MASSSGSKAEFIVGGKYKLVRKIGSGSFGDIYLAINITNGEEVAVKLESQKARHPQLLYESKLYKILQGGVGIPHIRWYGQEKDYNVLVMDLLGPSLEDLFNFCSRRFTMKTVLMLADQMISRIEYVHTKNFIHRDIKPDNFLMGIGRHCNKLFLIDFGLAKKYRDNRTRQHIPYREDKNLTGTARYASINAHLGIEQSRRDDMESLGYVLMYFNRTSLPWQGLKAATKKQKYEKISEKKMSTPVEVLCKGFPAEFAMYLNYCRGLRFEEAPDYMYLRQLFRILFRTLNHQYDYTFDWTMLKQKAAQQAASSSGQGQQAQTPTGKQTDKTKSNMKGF
T6 sequence (Q96SW2 whole entry): as the sequence (Q96SW2 whole entry) above
T6 sequence (Q16531 whole entry partner): as the sequence (Q16531 whole entry partner) above
The test can be described thus: Western-blot assay, substrate protein degradation in hPBMCs: CK1α. The following applies: 24 hours of compound treatment, 50 nM and 500 nM. The format is cell-based.

T1 sequence (Q13422 whole entry): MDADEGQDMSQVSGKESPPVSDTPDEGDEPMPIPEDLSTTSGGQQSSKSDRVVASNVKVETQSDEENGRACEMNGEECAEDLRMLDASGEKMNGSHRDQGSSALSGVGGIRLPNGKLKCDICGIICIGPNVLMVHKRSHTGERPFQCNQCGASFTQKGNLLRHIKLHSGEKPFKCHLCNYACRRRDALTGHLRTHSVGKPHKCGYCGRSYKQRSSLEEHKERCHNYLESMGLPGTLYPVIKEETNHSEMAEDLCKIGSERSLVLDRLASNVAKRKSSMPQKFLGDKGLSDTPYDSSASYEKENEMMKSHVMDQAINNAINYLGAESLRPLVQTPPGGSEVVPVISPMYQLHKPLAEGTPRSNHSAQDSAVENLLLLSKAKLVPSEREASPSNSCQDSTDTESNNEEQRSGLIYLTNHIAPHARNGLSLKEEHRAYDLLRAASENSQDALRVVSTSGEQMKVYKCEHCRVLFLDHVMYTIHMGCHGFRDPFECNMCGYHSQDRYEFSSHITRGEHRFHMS
T1 sequence (Q96SW2 whole entry): as the sequence (Q96SW2 whole entry) above
T1 sequence (Q16531 whole entry partner): as the sequence (Q16531 whole entry partner) above
Protocol for MDA-MB-231: The tumor cells used herein were cultured in a cell culture medium listed in table 2 at 37°C in an incubator with 5% CO2. Prior to experimentation, all cell lines used were correctly identified by STR profiling, and tested negative for mycoplasma contamination using a mycoplasma detection kit through routine screenings.
On the following day, the test compounds of the present disclosure were subjected to serial dilution. […] Subsequently, 0.5 µL of the test compound dilution was transferred into the 96-well plate containing the cells, with each well containing 100 µL of cell culture medium. […] Into the 96-well plate, the diluted test compounds and corresponding detection reagents were added, resulting in final test compound concentrations of 500 nM and 10 nM, respectively. The experimental procedure is described below using the diluted 2 µM test compound as an example.
After the cells were treated with the compounds of the present disclosure for a specified period, the cell viability assay reagent was added to the culture medium according to the kit's instructions to determine cell viability. […] All controls were treated using the same procedure as the compounds of the present disclosure. The growth inhibition curves for the compounds of the present disclosure were plotted using Prism GraphPad software, and the IC50 values were calculated therefrom.

On to `Cc1cc2c(N3CCN(Cc4ccc5c(c4)CN(N4CCC(=O)NC4=O)C5=O)CC3)ncnc2s1` [GT-08059, 1-(5-((4-(6-methylthieno[2,3-d]pyrimidin-4-yl)piperazin-1-yl)methyl)-1-oxoisoindolin-2-yl)dihydropyrimidine-2,4(1H,3H)-dione], for which the “substrate protein remaining % IKZF1” value on IKZF1 is given as “B (80%< substrate protein remaining %≤ 100%)”. Also, the inhibition at 0.01 µM with H292 fell in the range of 20 to 40%; in the test on MDA-MB-231, 25 to 40%; with H2228, 30 to 40%. Besides, the figures for the inhibition at 0.5 µM with H292, in the test with MDA-MB-231 and in the test with H2228 were 5 to 10%, 25 to 40% and 15 to 20%, respectively. For the same molecule, the “substrate protein remaining % IKZF3” value on IKZF3 is “A (0% ≤ substrate protein remaining % ≤ 80%)”. For the same molecule, the “substrate protein remaining % IKZF2” value on IKZF2 is listed as “B (80%< substrate protein remaining %≤ 100%)”. The “substrate protein remaining % WEE1” value on WEE1 is reported as “B (80%< substrate protein remaining %≤ 100%)”. Besides, the “substrate protein remaining % GSPT1” value at GSPT1 was “B (80%< substrate protein remaining %≤ 100%)”. Besides, the “substrate protein remaining % CK1α” value at CK1α was “B (80%< substrate protein remaining %≤ 100%)”.

Consider `Cc1nc(C2CCN(Cc3ccc4c(c3)CN(N3CCC(=O)NC3=O)C4=O)CC2)c2c3c(sc2n1)CCCC3` [GT-08089, 1-(5-((4-(2-methyl-5,6,7,8-tetrahydrobenzo[4,5]thieno[2,3-d]pyrimidin-4-yl)piperidin-1-yl)methyl)-1-oxoisoindolin-2-yl)dihydropyrimidine-2,4(1H,3H)-dione], for which, on IKZF1, the “substrate protein remaining % IKZF1” value is reported as “B (80%< substrate protein remaining %≤ 100%)”. Besides, the results for the inhibition at 0.01 µM with H292, with MDA-MB-231 and in the test on H2228 were 20 to 40%, 18 to 25% and 20 to 25%, respectively. Further, the inhibition at 0.5 µM in the test on H292 lay within 20 to 40%; in the test on MDA-MB-231 it was 25 to 40%; with H2228, 20 to 25%. The “substrate protein remaining % IKZF3” value on IKZF3 is “B (80%< substrate protein remaining %≤ 100%)”. Further, the “substrate protein remaining % IKZF2” value at IKZF2 is given as “B (80%< substrate protein remaining %≤ 100%)”. At WEE1, the “substrate protein remaining % WEE1” value is reported as “A (0% ≤ substrate protein remaining % ≤ 80%)”. Moreover, the “substrate protein remaining % GSPT1” value on GSPT1 was “A (0% ≤ substrate protein remaining % ≤ 80%)”. For the same molecule, at CK1α, the “substrate protein remaining % CK1α” value was “A (0% ≤ substrate protein remaining % ≤ 80%)”.

With `Cc1csc2ncnc(N3CCN(Cc4ccc5c(c4)C(=O)N(N4CCC(=O)NC4=O)C5=O)CC3)c12` [GT-08091, 2-(2,4-dioxotetrahydropyrimidin-1(2H)-yl)-5-((4-(5-methylthieno[2,3-d]pyrimidin-4-yl)piperazin-1-yl)methyl)isoindoline-1,3-dione], the “substrate protein remaining % IKZF1” value on IKZF1 is “B (80%< substrate protein remaining %≤ 100%)”. The inhibition at 0.01 µM in the test on H292 fell in the range of 20 to 40%; with MDA-MB-231, 15 to 18%; in the test on H2228, 20 to 25%. The results for the inhibition at 0.5 µM with H292, with MDA-MB-231 and with H2228 were 20 to 40%, 18 to 25% and 20 to 25%, respectively. Moreover, the “substrate protein remaining % IKZF3” value at IKZF3 is recorded as “B (80%< substrate protein remaining %≤ 100%)”. In addition, the “substrate protein remaining % IKZF2” value on IKZF2 is “B (80%< substrate protein remaining %≤ 100%)”. At WEE1, the “substrate protein remaining % WEE1” value is on record as “A (0% ≤ substrate protein remaining % ≤ 80%)”. Further, the “substrate protein remaining % GSPT1” value on GSPT1 is “A (0% ≤ substrate protein remaining % ≤ 80%)”. Moreover, the “substrate protein remaining % CK1α” value at CK1α was “A (0% ≤ substrate protein remaining % ≤ 80%)”.

As to `O=C1CCN(N2Cc3cc(CNC45CC6CC(CC(O)(C6)C4)C5)ccc3C2=O)C(=O)N1` [GT-07784, 1-(5-((((1r,3s,5R,7S)-3-hydroxyadamantan-1-yl)amino)methyl)-1-oxoisoindolin-2-yl)dihydropyrimidine-2,4(1H,3H)-dione], the “substrate protein remaining % IKZF1” value on IKZF1 is listed as “B (80%< substrate protein remaining %≤ 100%)”. Besides, the figures for the inhibition at 0.01 µM in the test with H292, with MDA-MB-231 and in the test with H2228 were 20 to 40%, 18 to 25% and 25 to 30%, respectively. For the same molecule, the inhibition at 0.5 µM in the test with H292 was in the range of 20 to 40%; with MDA-MB-231, 25 to 40%; in the test on H2228 it was 30 to 40%. Further, the “substrate protein remaining % IKZF3” value on IKZF3 was “B (80%< substrate protein remaining %≤ 100%)”. Moreover, at IKZF2, the “substrate protein remaining % IKZF2” value is on record as “A (0% ≤ substrate protein remaining % ≤ 80%)”. Further, the “substrate protein remaining % WEE1” value at WEE1 is on record as “B (80%< substrate protein remaining %≤ 100%)”. The “substrate protein remaining % GSPT1” value at GSPT1 is “B (80%< substrate protein remaining %≤ 100%)”. Also, at CK1α, the “substrate protein remaining % CK1α” value is “B (80%< substrate protein remaining %≤ 100%)”.

Consider `Cc1cc2c(C3CCN(Cc4ccc5c(c4)CN(N4CCC(=O)NC4=O)C5=O)CC3)ncnc2s1` [GT-08083, 1-(5-((4-(6-methylthieno[2,3-d]pyrimidin-4-yl)piperidin-1-yl)methyl)-1-oxoisoindolin-2-yl)dihydropyrimidine-2,4(1H,3H)-dione], for which, on IKZF1, the “substrate protein remaining % IKZF1” value is listed as “B (80%< substrate protein remaining %≤ 100%)”. Besides, the inhibition at 0.01 µM fell in the range of 20 to 40% with H292, 25 to 40% with MDA-MB-231 and 25 to 30% with H2228. Further, the inhibition at 0.5 µM is 20 to 40% in the test on H292, 25 to 40% with MDA-MB-231 and 30 to 40% in the test with H2228. Moreover, at IKZF3, the “substrate protein remaining % IKZF3” value was “B (80%< substrate protein remaining %≤ 100%)”. Further, the “substrate protein remaining % IKZF2” value on IKZF2 is listed as “B (80%< substrate protein remaining %≤ 100%)”. Also, the “substrate protein remaining % WEE1” value on WEE1 is “B (80%< substrate protein remaining %≤ 100%)”. Also, on GSPT1, the “substrate protein remaining % GSPT1” value is on record as “A (0% ≤ substrate protein remaining % ≤ 80%)”. For the same molecule, the “substrate protein remaining % CK1α” value at CK1α is listed as “A (0% ≤ substrate protein remaining % ≤ 80%)”.

As to `O=C1CCN(N2Cc3cc(CN4CCC(c5ncnc6sc7c(c56)CCCC7)CC4)ccc3C2=O)C(=O)N1` [GT-08112, 1-(1-oxo-5-((4-(5,6,7,8-tetrahydrobenzo[4,5]thieno[2,3-d]pyrimidin-4-yl)piperidin-1-yl)methyl)isoindolin-2-yl)dihydropyrimidine-2,4(1H,3H)-dione], the “substrate protein remaining % IKZF1” value at IKZF1 is recorded as “B (80%< substrate protein remaining %≤ 100%)”. In addition, the inhibition at 0.01 µM lay within 15 to 20% with H292, 15 to 18% in the test on MDA-MB-231 and 15 to 20% in the test with H2228. For the same molecule, the inhibition at 0.5 µM is 20 to 40% with H292, 25 to 40% in the test on MDA-MB-231 and 25 to 30% in the test on H2228. Also, at IKZF3, the “substrate protein remaining % IKZF3” value was “B (80%< substrate protein remaining %≤ 100%)”. Moreover, on IKZF2, the “substrate protein remaining % IKZF2” value is recorded as “B (80%< substrate protein remaining %≤ 100%)”. At WEE1, the “substrate protein remaining % WEE1” value is “B (80%< substrate protein remaining %≤ 100%)”. For the same molecule, the “substrate protein remaining % GSPT1” value at GSPT1 is given as “A (0% ≤ substrate protein remaining % ≤ 80%)”. The “substrate protein remaining % CK1α” value on CK1α is listed as “B (80%< substrate protein remaining %≤ 100%)”.
